Measured values: ChEMBL document CHEMBL1201862, “PubChem BioAssay data set” (2004)
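Test compounds were applied to cells in 96-well plates for 48 hours at 5 doses. GI50 marks 50% less growth.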 The source made the active and inactive calls. Rule as the data show it: active = GI50 up to about 1.1 µM and inactive = higher.

Assays:
Test in all cases: NCI-60 cell line screen, 48 h
NCI-H522 = system: NCI-H522
NCI-H23 = system: NCI-H23
MDA-N = system: MDA-N
NCI-H226 = system: NCI-H226
SF-539 = system: SF-539
UACC-257 = system: UACC-257
SR = system: SR
HL-60 = system: HL-60
CCRF-CEM = system: CCRF-CEM
786-0 = system: 786-0
LOX IMVI = system: LOX IMVI
OVCAR-8 = system: OVCAR-8
SK-MEL-28 = system: SK-MEL-28
DU-145 = system: DU-145
HCT-116 = system: HCT-116
UO-31 = system: UO-31
T47D = system: T47D
A549 = system: A549
SF-268 = system: SF-268
Hs-578T = system: Hs-578T

Measured: GI50

O=C(O)CC(CC(=O)O)n1cccc1
inactive: NCI-H522 > 100 µM | NCI-H23 > 100 µM | MDA-N > 100 µM | NCI-H226 > 100 µM | SF-539 > 100 µM | UACC-257 > 100 µM | SR > 100 µM | HL-60 > 100 µM | CCRF-CEM > 100 µM | 786-0 > 100 µM | LOX IMVI > 100 µM | OVCAR-8 > 100 µM | SK-MEL-28 > 100 µM | DU-145 > 100 µM | HCT-116 > 100 µM | UO-31 > 100 µM | T47D > 100 µM | A549 > 100 µM

O=C1CCCC1C(=O)Nc1ccc2ccccc2c1 (centres undefined)
inactive: NCI-H522 49 µM | NCI-H23 > 100 µM | MDA-N > 100 µM | NCI-H226 > 100 µM | UACC-257 > 100 µM | SR > 100 µM | HL-60 35.6 µM | SF-268 > 100 µM | CCRF-CEM 57 µM | 786-0 > 100 µM | LOX IMVI > 100 µM | OVCAR-8 > 100 µM | SK-MEL-28 > 100 µM | DU-145 > 100 µM | HCT-116 > 100 µM | UO-31 > 100 µM | T47D 62.5 µM | A549 > 100 µM

CC1=CC(=O)C[C@]2(C)[C@@H](O)CC(C(C)CO)C[C@@H]12 (some centres undefined)
inactive: NCI-H23 > 100 µM | MDA-N > 100 µM | NCI-H226 > 100 µM | SF-539 > 100 µM | UACC-257 > 100 µM | HL-60 > 100 µM | SF-268 > 100 µM | 786-0 > 100 µM | LOX IMVI > 100 µM | OVCAR-8 > 100 µM | SK-MEL-28 > 100 µM | DU-145 > 100 µM | HCT-116 > 100 µM | UO-31 > 100 µM | T47D > 100 µM | A549 > 100 µM

CCOC(=O)c1ccc(NCc2ccc3oc(=O)c(-c4ccccc4)nc3c2)cc1
inactive: NCI-H522 6.21 µM | NCI-H23 19.1 µM | MDA-N 21.5 µM | NCI-H226 94.2 µM | SF-539 > 100 µM | UACC-257 20.3 µM | SR 34.9 µM | HL-60 3.94 µM | SF-268 64.1 µM | CCRF-CEM 3.46 µM | 786-0 34.5 µM | LOX IMVI 31.8 µM | OVCAR-8 18.8 µM | SK-MEL-28 30.7 µM | DU-145 36.2 µM | HCT-116 29.8 µM | UO-31 27 µM | T47D 12.4 µM | A549 68.5 µM

CC(C)CCC[C@@H](C)[C@H]1CC[C@H]2[C@@H]3CC[C@H]4C[C@@H](CCC=C(c5cc(Cl)c(O)c(C(=O)O)c5)c5cc(Cl)c(O)c(C(=O)O)c5)CC[C@]4(C)[C@H]3CC[C@]12C
inactive: NCI-H522 > 100 µM | NCI-H23 > 100 µM | Hs-578T > 100 µM | NCI-H226 > 100 µM | SF-539 > 100 µM | UACC-257 > 100 µM | SR > 100 µM | HL-60 > 100 µM | SF-268 > 100 µM | CCRF-CEM > 100 µM | 786-0 > 100 µM | LOX IMVI > 100 µM | OVCAR-8 > 100 µM | SK-MEL-28 > 100 µM | DU-145 > 100 µM | HCT-116 > 100 µM | UO-31 > 100 µM | T47D > 100 µM | A549 > 100 µM

CNC1=CC(=O)C2=C(C1=O)[C@H]1CC[C@]3(C)C(=O)CC[C@H]3[C@@H]1CC2
inactive: NCI-H23 5.13 µM | MDA-N 8.17 µM | NCI-H226 12.4 µM | SF-539 18.4 µM | UACC-257 13.2 µM | SR 14.1 µM | CCRF-CEM 9.18 µM | 786-0 17.3 µM | LOX IMVI 4.54 µM | OVCAR-8 9.71 µM | SK-MEL-28 18.2 µM | DU-145 15 µM | HCT-116 16.9 µM | UO-31 18.8 µM | T47D 18.9 µM | A549 19.8 µM

FC(F)(F)c1ccc(/N=C/C=C(/Nc2ccc(C(F)(F)F)cc2)c2ccc(Cl)cc2)cc1
inactive: NCI-H522 11.1 µM | NCI-H23 12.2 µM | Hs-578T 13 µM | NCI-H226 4.53 µM | SF-539 14.2 µM | UACC-257 16.4 µM | SR 3.47 µM | HL-60 12.9 µM | SF-268 12.1 µM | CCRF-CEM 5.22 µM | 786-0 15.5 µM | LOX IMVI 1.64 µM | OVCAR-8 15.6 µM | SK-MEL-28 15.1 µM | DU-145 13.5 µM | HCT-116 4.79 µM | UO-31 14.5 µM | T47D 10.3 µM | A549 12.5 µM

CN(C)c1ccc(/C=C(\NC(=O)c2ccccc2)C(=O)NC(CC(=O)O)C(=O)O)cc1 (centres undefined)
inactive: NCI-H522 17.7 µM | NCI-H23 > 100 µM | Hs-578T 49.7 µM | NCI-H226 > 100 µM | SF-539 > 100 µM | UACC-257 > 100 µM | SR 75 µM | HL-60 > 100 µM | SF-268 61.4 µM | CCRF-CEM > 100 µM | 786-0 41.9 µM | LOX IMVI 86.3 µM | OVCAR-8 68.9 µM | SK-MEL-28 > 100 µM | DU-145 > 100 µM | HCT-116 > 100 µM | UO-31 > 100 µM | T47D > 100 µM | A549 > 100 µM
